Experimental data published in ChEMBL document CHEMBL1151104, “Mollinedine, a New Alkaloid from Mollinedia costaricensis” (J Nat Prod, 1988).
Calls of active or inactive are those of the source. No cut-off for these calls is given here.

How the values were obtained:
Cavia porcellus = organism: Cavia porcellus; assay: Inhibition of CaCl2-induced myocardial arrhythmias in guinea pig; type: functional, organism-based
Rattus norvegicus = organism: Rattus norvegicus; assay: Inhibition of ouabain-induced myocardial arrhythmias in rat; type: functional, organism-based

For `c1cc2cc3c(cc2c(Cc2ccc4c(c2)OCO4)n1)OCO3`, the Activity (Cavia porcellus) was “Active” and the Activity (Rattus norvegicus) was “Active”.
